Experimental data taken from ChEMBL document CHEMBL1124205, “Synthesis and antiviral evaluation of 6'-substituted aristeromycins: potential mechanism-based inhibitors of S-adenosylhomocysteine hydrolase” (J Med Chem, 1988).

What was measured:
[1] = system: HEp-2; assay: Cytotoxic concentration against HEP-2 cells; assay type: functional, cell-based; conditions: Homo sapiens
[2] = system: Human alphaherpesvirus 1; assay: Concentration at which 50% of the herpes simplex virus type 1 HSV-1 (F) induced cytopathic effect are inhibited is determined; assay type: functional; conditions: read-out: ED50 (the source's name)
[3] = system: Human alphaherpesvirus 2; assay: Antiviral activity against herpes simplex virus type 2 HSV-2 (F) expressed as viral rating (VR); assay type: functional
[4] = system: Human alphaherpesvirus 1; assay: Antiviral activity against herpes simplex virus type 1 HSV-1 (F) expressed as viral rating (VR); assay type: functional
[5] = system: Human alphaherpesvirus 2; assay: Concentration at which 50% of the herpes simplex virus type 2 […] (F) induced cytopathic effect are inhibited is determined; assay type: functional; conditions: read-out: ED50 (the source's name)
[6] = system: Vaccinia virus; assay: Antiviral activity against vaccinia virus in HEP -2 cells; assay type: functional, Orthopoxvirus vaccinia
[7] = system: Vaccinia virus; assay: Inhibition of vaccinia virus induced cytopathic effects in HEP -2 cells; assay type: functional; conditions: Orthopoxvirus vaccinia, read-out: ED50 (the source's name)
[8] = system: Vaccinia virus; conditions: read-out: ED50

SMILES | Concentration [1] [µM] | EC50 [2] [µM] | VR [3] | VR [4] | EC50 [5] [µM] | VR [6] | EC50 [7] [µM] | EC50 [8] [µM]
Nc1ncnc2c1ncn2C1C(O)C(F)C(CO)C1O (stereo not drawn) | 225 | 225 | 0 | 0 | 225 |  |  | 
Nc1ncnc2c1ncn2[C@H]1[C@H](O)[C@H](O)[C@@H](CO)[C@H]1F | 320 | 10 | 0.4 | 0.4 | 10 | 0.8 | 0.5 | 
Nc1ncnc2c1ncn2C1C(O)C(O)C(CO)C1O (stereo not drawn) | > 320 | 100 | 0.3 | 0.6 | 100 | 0.8 |  | 18
Nc1ncnc2c1ncn2[C@H]1[C@H](O)[C@H](O)[C@@H](CO)[C@@H]1F | > 320 | 90 | 0.1 | 0.1 | 90 | 0.4 |  | 63
C=C1C(CO)C(O)C(O)C1n1cnc2c(N)ncnc21 (stereo not drawn) | 50 | 16 | 0.3 | 0 | 5 | 0.9 |  | 0.55
Nc1nc2c(ncn2COC(CO)CO)c(=O)[nH]1 [GANCICLOVIR] | > 3200 | < 1 | 1.6 | 1.4 | 1 |  |  | 
Nc1ncnc2c1ncn2[C@@H](C=O)O[C@@H](C=O)CO | 100 |  | 0 |  | > 3200 | 1.3 |  | 0.5
